Laboratory results published in ChEMBL document CHEMBL3751786, “Toxocara canis: Larvicidal activity of fatty acid amides” (Bioorg Med Chem Lett, 2016).
Active and inactive are the calls of the source. The calls are words filed in the database; no cut-off is given here.

Columns and labels:
Toxocara canis [1] = test: Larvicidal activity against Toxocara canis larvae infected in BALB/c mouse at 1 mg/ml after 12 hrs; assay type: functional
Toxocara canis [2] = test: Larvicidal activity against Toxocara canis larvae at 1 mg/ml after 48 hrs by trypan blue assay relative to control; assay type: functional
Toxocara canis [3] = test: Larvicidal activity against Toxocara canis larvae infected in BALB/c mouse at 40 mg/kg after 12 hrs; assay type: functional, organism-based
Toxocara canis [4] = test: Larvicidal activity against Toxocara canis larvae infected in BALB/c mouse at 0.05 mg/ml after 12 hrs; assay type: functional
[5] = Cytotoxicity against C57BL/6 mouse peritoneal macrophages at 0.025 to 0.05 mg/ml after 48 hrs by MTT assay; assay type: cell-based, Peritoneal macrophage cell; conditions: read-out: MLC
[6] = Cytotoxicity against C57BL/6 mouse peritoneal macrophages at 0.025 to 0.05 mg/ml after 48 hrs by LDH release assay; assay type: cell-based; conditions: peritoneal macrophage cell

| SMILES | Activity (Toxocara canis [1]) | Activity (Toxocara canis [2]) [%] | Activity (Toxocara canis [3]) | Activity (Toxocara canis [4]) | MCC at 48 h [5] [µg/mL] | Activity [6] [%] |
| --- | --- | --- | --- | --- | --- | --- |
| CCCCCCCC/C=C\CCCCCCCC(=O)N[C@@H](C)c1ccccc1 | Active | 100 |  |  |  |  |
| CCCCCCCC/C=C\CCCCCCCC(=O)NC(C)c1ccccc1 (centres undefined) | Active | 100 |  |  |  |  |
| CCCSc1ccc2[nH]c(NC(=O)OC)nc2c1 [ALBENDAZOLE] |  | 100 | Active |  |  |  |
| CCCCCCCC/C=C\CCCCCCCC(=O)NN1CCOCC1 | Active | 100 |  |  |  |  |
| CCCCCCCCCCCCCCCCCC(=O)N[C@H](C)c1ccccc1 | Active | 100 |  |  |  |  |
| CCCCCCCC/C=C\CCCCCCCC(=O)N[C@H](C)c1ccccc1 | Active | 100 |  |  |  |  |
| CCCCC/C=C\C/C=C\CCCCCCCC(=O)N[C@H](C)c1ccccc1 | Active | 100 |  |  |  |  |
| CCCCCC[C@@H](O)C/C=C\CCCCCCCC(=O)N[C@H](C)c1ccccc1 | Active | 100 |  |  |  |  |
| CCCCCC[C@@H](O)C/C=C\CCCCCCCC(=O)N[C@@H](C)c1ccccc1 | Active | 100 |  |  |  |  |
| CCCCCCCCCCCCCCCC(=O)N[C@H](C)c1ccccc1 | Active | 100 |  |  |  |  |
| CCCCCC[C@@H](O)C/C=C\CCCCCCCC(=O)NCc1ccccc1 | Active | 100 |  |  |  |  |
| CCCCCC[C@@H](O)C/C=C\CCCCCCCC(=O)NN1CCCC1 | Active | 100 |  |  |  |  |
| CCCCC/C=C\C/C=C\CCCCCCCC(=O)N[C@@H](C)c1ccccc1 | Active | 100 |  |  |  |  |
| CCCCCCCCCCCCCCCCCC(=O)N[C@@H](C)c1ccccc1 | Active | 100 |  |  |  |  |
| CCCCCC[C@@H](O)C/C=C\CCCCCCCC(=O)NN1CCOCC1 | Active | 100 |  |  |  |  |
| CCCCC/C=C\C/C=C\CCCCCCCC(=O)NN1CCCC1 |  | 100 |  | Active | 50 | 27 |
